Data published in ChEMBL document CHEMBL5107949, “Design, synthesis, and antibacterial activity of N-(trifluoromethyl)phenyl substituted pyrazole derivatives” (RSC Med Chem, 2021).
≈ marks a conversion by molar mass, not a printed value.

Tests used:
Assay type in all cases: functional
Staphylococcus aureus [1] = assay: Antibacterial activity against antibiotic resistant Staphylococcus aureus BAA-2312 assessed as inhibition of bacterial growth by CLSI protocol based broth microdilution method
Staphylococcus aureus [2] = assay: Antibacterial activity against antibiotic resistant Staphylococcus aureus ATCC 700699 assessed as inhibition of bacterial growth by CLSI protocol based broth microdilution method
Staphylococcus aureus [3] = assay: Antibacterial activity against antibiotic resistant Staphylococcus aureus ATCC 33592 assessed as inhibition of bacterial growth by CLSI protocol based broth microdilution method
Bacillus subtilis = assay: Antibacterial activity against antibiotic resistant Bacillus subtilis ATCC 6623 assessed as inhibition of bacterial growth by CLSI protocol based broth microdilution method
Staphylococcus aureus [4] = assay: Antibacterial activity against antibiotic susceptible Staphylococcus aureus ATCC 25923 assessed as inhibition of bacterial growth by CLSI protocol based broth microdilution method
[5] = tested on: Staphylococcus epidermidis; assay: Antibacterial activity against antibiotic resistant Staphylococcus epidermidis ATCC 700296 assessed as inhibition of bacterial growth by CLSI protocol based broth microdilution method
Enterococcus faecalis [6] = assay: Antibacterial activity against antibiotic susceptible Enterococcus faecalis ATCC 29212 assessed as inhibition of bacterial growth by CLSI protocol based broth microdilution method
Enterococcus faecium [7] = assay: Antibacterial activity against vancomycin resistant Enterococcus faecium ATCC 700221 assessed as inhibition of bacterial growth by CLSI protocol based broth microdilution method
Staphylococcus aureus [8] = assay: Antibacterial activity against antibiotic resistant Staphylococcus aureus ATCC 33591 assessed as inhibition of bacterial growth by CLSI protocol based broth microdilution method
Enterococcus faecium [9] = assay: Antibacterial activity against Enterococcus faecium clinical isolate 1088228 assessed as inhibition of bacterial growth by CLSI protocol based broth microdilution method
Staphylococcus aureus [10] = assay: Antibacterial activity against Staphylococcus aureus clinical isolate 1088064 assessed as inhibition of bacterial growth by CLSI protocol based broth microdilution method
Enterococcus faecium [11] = assay: Antibacterial activity against Enterococcus faecium clinical isolate 1088925 assessed as inhibition of bacterial growth by CLSI protocol based broth microdilution method
Enterococcus faecalis [12] = assay: Antibacterial activity against Enterococcus faecalis clinical isolate 1088051 assessed as inhibition of bacterial growth by CLSI protocol based broth microdilution method
Enterococcus faecalis [13] = assay: Antibacterial activity against Enterococcus faecalis clinical isolate 1091563 assessed as inhibition of bacterial growth by CLSI protocol based broth microdilution method
Enterococcus faecalis [14] = assay: Antibacterial activity against Enterococcus faecalis clinical isolate 1094112 assessed as inhibition of bacterial growth by CLSI protocol based broth microdilution method
Enterococcus faecalis [15] = assay: Antibacterial activity against Enterococcus faecalis clinical isolate 1091720 assessed as inhibition of bacterial growth by CLSI protocol based broth microdilution method
Staphylococcus aureus [16] = assay: Antibacterial activity against Staphylococcus aureus clinical isolate 1088060 assessed as inhibition of bacterial growth by CLSI protocol based broth microdilution method
Staphylococcus aureus [17] = assay: Antibacterial activity against Staphylococcus aureus clinical isolate 1089106 assessed as inhibition of bacterial growth by CLSI protocol based broth microdilution method
Staphylococcus aureus [18] = assay: Antibacterial activity against Staphylococcus aureus clinical isolate 1088626 assessed as inhibition of bacterial growth by CLSI protocol based broth microdilution method
Staphylococcus aureus [19] = assay: Antibacterial activity against Staphylococcus aureus clinical isolate 1088888 assessed as inhibition of bacterial growth by CLSI protocol based broth microdilution method
Enterococcus faecium [20] = assay: Antibacterial activity against Enterococcus faecium clinical isolate 1089544 assessed as inhibition of bacterial growth by CLSI protocol based broth microdilution method
Enterococcus faecium [21] = assay: Antibacterial activity against Enterococcus faecium clinical isolate 1091282 assessed as inhibition of bacterial growth by CLSI protocol based broth microdilution method
Staphylococcus aureus [22] = assay: Antibacterial activity against Staphylococcus aureus clinical isolate 1088610 assessed as inhibition of bacterial growth by CLSI protocol based broth microdilution method
Enterococcus faecium [23] = assay: Antibacterial activity against Enterococcus faecium clinical isolate 1088168 assessed as inhibition of bacterial growth by CLSI protocol based broth microdilution method
Staphylococcus aureus [24] = assay: Antibacterial activity against Staphylococcus aureus clinical isolate 1088105 assessed as inhibition of bacterial growth by CLSI protocol based broth microdilution method
Enterococcus faecalis [25] = assay: Antibacterial activity against Enterococcus faecalis clinical isolate 1100440 assessed as inhibition of bacterial growth by CLSI protocol based broth microdilution method

SMILES	MIC (Staphylococcus aureus [1])	MIC (Staphylococcus aureus [2])	MIC (Staphylococcus aureus [3])	MIC (Bacillus subtilis)	MIC (Staphylococcus aureus [4])	MIC [5]	MIC (Enterococcus faecalis [6])	MIC (Enterococcus faecium [7])	MIC (Staphylococcus aureus [8])	other results
O=C(O)c1ccc(-c2nn(-c3ccc(C(F)(F)F)cc3)cc2CNc2ccc(F)c(F)c2)cc1	25 µg/mL (≈ 52.8 µM)	6.25 µg/mL (≈ 13.2 µM)	6.25 µg/mL (≈ 13.2 µM)	12.5 µg/mL (≈ 26.4 µM)	12.5 µg/mL (≈ 26.4 µM)	25 µg/mL (≈ 52.8 µM)	25 µg/mL (≈ 52.8 µM)	12.5 µg/mL (≈ 26.4 µM)	25 µg/mL (≈ 52.8 µM)	
O=C(O)c1ccc(-c2nn(-c3ccc(C(F)(F)F)cc3)cc2CNc2cccc(Cl)c2F)cc1	6.25 µg/mL (≈ 12.8 µM)	3.12 µg/mL (≈ 6.37 µM)	3.12 µg/mL (≈ 6.37 µM)	1.56 µg/mL (≈ 3.18 µM)	3.12 µg/mL (≈ 6.37 µM)	12.5 µg/mL (≈ 25.5 µM)	12.5 µg/mL (≈ 25.5 µM)	6.25 µg/mL (≈ 12.8 µM)	6.25 µg/mL (≈ 12.8 µM)	
O=C(O)c1ccc(-c2nn(-c3ccc(C(F)(F)F)cc3)cc2CNc2ccc(C(F)(F)F)cc2)cc1	12.5 µg/mL (≈ 24.7 µM)	3.12 µg/mL (≈ 6.17 µM)	6.25 µg/mL (≈ 12.4 µM)	6.25 µg/mL (≈ 12.4 µM)	12.5 µg/mL (≈ 24.7 µM)	12.5 µg/mL (≈ 24.7 µM)	25 µg/mL (≈ 49.5 µM)	12.5 µg/mL (≈ 24.7 µM)	12.5 µg/mL (≈ 24.7 µM)	
O=C(O)c1ccc(-c2nn(-c3ccc(C(F)(F)F)cc3)cc2CNc2ccccc2)cc1	25 µg/mL (≈ 57.2 µM)	25 µg/mL (≈ 57.2 µM)	25 µg/mL (≈ 57.2 µM)	25 µg/mL (≈ 57.2 µM)	25 µg/mL (≈ 57.2 µM)	25 µg/mL (≈ 57.2 µM)		25 µg/mL (≈ 57.2 µM)	50 µg/mL (≈ 114 µM)	
O=C(O)c1ccc(-c2nn(-c3ccc(C(F)(F)F)cc3)cc2CNc2ccc(F)c(Cl)c2)cc1	6.25 µg/mL (≈ 12.8 µM)	3.12 µg/mL (≈ 6.37 µM)	3.12 µg/mL (≈ 6.37 µM)	3.12 µg/mL (≈ 6.37 µM)	3.12 µg/mL (≈ 6.37 µM)	12.5 µg/mL (≈ 25.5 µM)	12.5 µg/mL (≈ 25.5 µM)	6.25 µg/mL (≈ 12.8 µM)	12.5 µg/mL (≈ 25.5 µM)	
O=C(O)c1ccc(-c2nn(-c3ccc(C(F)(F)F)cc3)cc2CNc2ccc(Cl)cc2)cc1	12.5 µg/mL (≈ 26.5 µM)	6.25 µg/mL (≈ 13.2 µM)	6.25 µg/mL (≈ 13.2 µM)	6.25 µg/mL (≈ 13.2 µM)	6.25 µg/mL (≈ 13.2 µM)	12.5 µg/mL (≈ 26.5 µM)	12.5 µg/mL (≈ 26.5 µM)	6.25 µg/mL (≈ 13.2 µM)	6.25 µg/mL (≈ 13.2 µM)	
O=C(O)c1ccc(-c2nn(-c3ccc(C(F)(F)F)cc3)cc2CNc2ccc([N+](=O)[O-])cc2)cc1	25 µg/mL (≈ 51.8 µM)	12.5 µg/mL (≈ 25.9 µM)	12.5 µg/mL (≈ 25.9 µM)	12.5 µg/mL (≈ 25.9 µM)	25 µg/mL (≈ 51.8 µM)	25 µg/mL (≈ 51.8 µM)	25 µg/mL (≈ 51.8 µM)	25 µg/mL (≈ 51.8 µM)	25 µg/mL (≈ 51.8 µM)	
CN1CCN(c2ccc(NCc3cn(-c4ccc(C(F)(F)F)cc4)nc3-c3ccc(C(=O)O)cc3)cc2C(F)(F)F)CC1	25 µg/mL (≈ 41.4 µM)	12.5 µg/mL (≈ 20.7 µM)	12.5 µg/mL (≈ 20.7 µM)	25 µg/mL (≈ 41.4 µM)	25 µg/mL (≈ 41.4 µM)		25 µg/mL (≈ 41.4 µM)	25 µg/mL (≈ 41.4 µM)	50 µg/mL (≈ 82.8 µM)	
CC(C)c1ccc(NCc2cn(-c3ccc(C(F)(F)F)cc3)nc2-c2ccc(C(=O)O)cc2)cc1	6.25 µg/mL (≈ 13 µM)	3.12 µg/mL (≈ 6.51 µM)	3.12 µg/mL (≈ 6.51 µM)	3.12 µg/mL (≈ 6.51 µM)	3.12 µg/mL (≈ 6.51 µM)	12.5 µg/mL (≈ 26.1 µM)	6.25 µg/mL (≈ 13 µM)	3.12 µg/mL (≈ 6.51 µM)	12.5 µg/mL (≈ 26.1 µM)	
O=C(O)c1ccc(-c2nn(-c3ccc(C(F)(F)F)cc3)cc2CNc2ccc(F)cc2)cc1	25 µg/mL (≈ 54.9 µM)	12.5 µg/mL (≈ 27.4 µM)	25 µg/mL (≈ 54.9 µM)	25 µg/mL (≈ 54.9 µM)	25 µg/mL (≈ 54.9 µM)	50 µg/mL (≈ 110 µM)		25 µg/mL (≈ 54.9 µM)	25 µg/mL (≈ 54.9 µM)	
Cc1onc(-c2ccccc2)c1C(=O)N[C@@H]1C(=O)N2[C@@H]1SC(C)(C)[C@@H]2C(=O)O [OXACILLIN]										MIC (Enterococcus faecium [9]): > 64 µg/mL; MIC (Staphylococcus aureus [10]): 64 µg/mL (≈ 159 µM); MIC (Enterococcus faecium [11]): > 64 µg/mL; MIC (Enterococcus faecalis [12]): 64 µg/mL (≈ 159 µM); MIC (Enterococcus faecalis [13]): 64 µg/mL (≈ 159 µM); MIC (Enterococcus faecalis [14]): > 64 µg/mL; MIC (Enterococcus faecalis [15]): 64 µg/mL (≈ 159 µM); MIC (Staphylococcus aureus [16]): 0.5 µg/mL (≈ 1.25 µM); MIC (Staphylococcus aureus [17]): 64 µg/mL (≈ 159 µM); MIC (Staphylococcus aureus [18]): 0.25 µg/mL (≈ 0.623 µM); MIC (Staphylococcus aureus [19]): > 64 µg/mL; MIC (Enterococcus faecium [20]): > 64 µg/mL; MIC (Enterococcus faecium [21]): > 64 µg/mL; MIC (Staphylococcus aureus [22]): 64 µg/mL (≈ 159 µM); MIC (Enterococcus faecium [23]): > 64 µg/mL; MIC (Staphylococcus aureus [24]): 0.25 µg/mL (≈ 0.623 µM); MIC (Enterococcus faecalis [25]): > 64 µg/mL
COc1ccc(NCc2cn(-c3ccc(C(F)(F)F)cc3)nc2-c2ccc(C(=O)O)cc2)cc1C(F)(F)F	12.5 µg/mL (≈ 23.3 µM)	6.25 µg/mL (≈ 11.7 µM)	12.5 µg/mL (≈ 23.3 µM)	6.25 µg/mL (≈ 11.7 µM)	12.5 µg/mL (≈ 23.3 µM)	25 µg/mL (≈ 46.7 µM)	25 µg/mL (≈ 46.7 µM)	12.5 µg/mL (≈ 23.3 µM)	25 µg/mL (≈ 46.7 µM)	
